Source: the RepoRT retention time repository (doi:10.1021/acs.analchem.1c00972)

Experiment: RP, Waters ACQUITY UPLC BEH C18, 100 × 1 mm, 1.7 µm, 50 °C, 0.3 mL/min, estimated dead time 0.17 min; A: water + 10 mM ammonium bicarbonate; B: 10% water + 90% methanol + 10 mM ammonium bicarbonate; gradient (min/%B) 0/0 15/100 21/100 22/0 30/0
Conditions: stereoisomer not certain

Structure (SMILES)	LC retention time
CNCC(c1ccc(O)cc1)C1(O)CCCCC1 (racemic) [rac N,O-Didesmethyl Venlafaxine]	15.4 min
O=c1[nH]sc2ccccc12 [1,2-Benzisothiazolinone]	6.97 min
FC(F)(F)c1cccc(N2CCNCC2)c1 [1-(3-Trifluoromethylphenyl)-piperazine]	10.6 min
CNC(=O)Nc1ccc(C(C)C)cc1 [1-(4-Isopropylphenyl)-3-methyl-Harnstoff]	13.1 min
CCCCCCS(=O)(=O)O [1-Hexanesulfonic acid]	9.17 min
CC(C)C(=O)OCC(C)(C)C(OC(=O)C(C)C)C(C)C (stereo not given) [2,2,4-Trimethyl-1,3-pentanediol diisobutyrate]	17.4 min
CC1(C)CC(=O)CC(C)(C)N1 [2,2,6,6-Tetramethyl-4 piperidone]	7.87 min
CC1(C)CC(O)CC(C)(C)N1 [2,2,6,6-Tetramethylpiperidin-4-ol]	4.21 min
Cc1ccc(C)c(O)c1C [2,3,6-Trimethylphenol]	13.3 min
CC(Oc1c(Cl)cc(Cl)cc1Cl)C(=O)O (stereo not given) [2,4,6-Fenoprop]	2 min
Oc1ccc(Cl)cc1Cl [2,4-Dichlorophenol]	12.3 min
Cc1ccc(NC=O)c(C)c1 [2,4-Dimethylformanilide]	11.2 min
Cc1cc(C(C)(C)C)c(O)c(C(C)(C)C)c1 [2,6-Di-tert.-butyl-4-methylphenol]	18.1 min
Cc1cccc(C)c1O [2,6-Dimethylphenol]	12 min
OCCc1ccccn1 [2-(2-Pyridyl)ethanol]	6.8 min
Nc1ccccc1Cl [2-Chloroaniline]	10.6 min
O=C(O)C=Cc1ccccc1O [2-Hydroxycinnamic acid]	5 min
CCCCCSCCOCCOCCOCCO [3,6,9-Trioxa-12-thia-heptadecanol]	14.6 min
NC12CC3CC(C1)CC(O)(C3)C2 [3-Amino-1-adamantanol]	10.4 min
Nc1cccc(Cl)c1 [3-Chloroaniline]	10.6 min
O=C(O)c1cccc(Oc2ccccc2)c1 [3-Phenoxybenzoic acid]	11.2 min
Cc1cc(Cl)ccc1N [4-Chloro-2-methylaniline]	12.3 min
Nc1ccc(Cl)cc1 [4-Chloroaniline]	10.6 min

Structure (SMILES)	LC retention time
COc1ccc(S(=O)(=O)O)cc1 [4-Methoxybenzenesulfonic acid]	4.27 min
COc1cc([N+](=O)[O-])ccc1O [4-Nitroguaiacol]	4.61 min
Nc1[nH]c(=O)ncc1F [5-Fluorocytosine]	5.99 min
C#CC1(O)CCC2C3CCc4cc(O)ccc4C3CCC21C (stereo not drawn) [17-alpha-Ethinylestradiol]	14.3 min
CC(=O)Nc1ccc(O)cc1 [Acetaminophen]	5.35 min
CNC(=O)ON=CC(C)(C)S(C)(=O)=O [Aldicarb Sulfone]	9.41 min
NC12CC3CC(CC(C3)C1)C2 [Amantadine]	10.5 min
CNC(=O)Oc1ccc(N(C)C)c(C)c1 [Aminocarb]	12.1 min
CN(C)CCC=C1c2ccccc2CCc2ccccc21 [Amitriptyline]	17.4 min
Nc1ccccc1C(=O)O [Anthranilic acid]	2.1 min
CCNc1nc(NC(C)C)nc(OC)n1 [Atraton]	12.4 min
CCNc1nc(Cl)nc(NC(C)C)n1 [Atrazine]	13.1 min
CCOc1nc2cccc(C(=O)O)c2n1Cc1ccc(-c2ccccc2-c2noc(=O)[nH]2)cc1 [Azilsartan]	9.52 min
COC(=O)C(C)N(C(=O)Cc1ccccc1)c1c(C)cccc1C (stereo not given) [Benalaxyl]	16 min
CNC(=O)Oc1cccc2c1OC(C)(C)O2 [Bendiocarb]	11.9 min
NS(=O)(=O)c1ccccc1 [Benzenesulfonamide]	12.8 min
O=C(OCc1ccccc1)c1ccccc1 [Benzoic acid benzyl ester]	16.3 min
c1ccc2scnc2c1 [Benzothiazol]	11.1 min
CCON=C(OC(=O)c1ccccc1)c1c(OC)ccc(Cl)c1OC [Benzoximate]	16.3 min
C=C(c1ccc(C(=O)O)cc1)c1cc2c(cc1C)C(C)(C)CCC2(C)C [Bexarotene]	17 min
Oc1ccc(C(c2ccccc2)(c2ccccc2)c2ccc(O)cc2)cc1 [Bisphenol BP]	15.9 min
CCC(C)(c1ccc(O)cc1)c1ccc(O)cc1 [Bisphenol B]	14.3 min
